Assay results published in patent US8134015B2, “Compound inhibiting in vivo phosphorous transport and medicine containing the same” (Kyowa Hakko Kirin Co., Ltd., priority 2003, dated 2012).

target: T1, rat NaPi-2b (Rattus norvegicus, UniProt Q9JJ09); assay: Sodium-dependent phosphate uptake of Xenopus oocytes which expressed NaPi-2b (32P); type: cell-based; conditions: Xenopus oocytes expressing rat NaPi-2b, 32P radioactive phosphorus; read-out: IC50 (phosphate uptake inhibitory activity)
T1 construct: expressed in transfected cells; host or cells: Xenopus oocytes injected with cRNA
T1 sequence (Q9JJ09 1-695): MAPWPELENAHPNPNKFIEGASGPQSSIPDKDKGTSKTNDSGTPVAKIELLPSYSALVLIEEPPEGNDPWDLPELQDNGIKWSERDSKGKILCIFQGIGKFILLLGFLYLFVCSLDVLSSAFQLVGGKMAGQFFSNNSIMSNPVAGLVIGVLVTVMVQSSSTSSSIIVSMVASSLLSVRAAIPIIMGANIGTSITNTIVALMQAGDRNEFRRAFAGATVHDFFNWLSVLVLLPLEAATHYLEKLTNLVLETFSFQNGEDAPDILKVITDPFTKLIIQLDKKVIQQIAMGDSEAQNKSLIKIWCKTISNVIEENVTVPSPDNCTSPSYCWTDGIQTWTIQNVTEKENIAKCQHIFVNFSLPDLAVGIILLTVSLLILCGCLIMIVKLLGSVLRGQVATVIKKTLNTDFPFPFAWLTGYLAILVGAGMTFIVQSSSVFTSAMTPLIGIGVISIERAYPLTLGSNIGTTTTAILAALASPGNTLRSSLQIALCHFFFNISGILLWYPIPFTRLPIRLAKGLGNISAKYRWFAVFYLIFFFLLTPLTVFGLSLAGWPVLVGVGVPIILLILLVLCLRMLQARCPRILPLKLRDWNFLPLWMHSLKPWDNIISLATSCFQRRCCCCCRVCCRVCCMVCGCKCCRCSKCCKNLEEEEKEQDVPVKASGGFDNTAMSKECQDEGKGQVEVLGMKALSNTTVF
Procedure, shortened: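 Oocytes injected with rat NaPi-2b cRNA, cultured 2 d, then 32P uptake measured with compound. Values: % inhibition at 300 and 100 μM, both from one inhibition curve.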

Row | Structure (SMILES) | IC50 [µM]
1 | CCN(CC)CCN(C)Cc1cccc(C(=O)Nc2ccc(I)cc2C(=O)N/N=C/c2ccc(Cl)c(C(F)(F)F)c2)c1 [Compound 477, N-[2-(4-chloro-3-trifluoromethyl-benzylidene-hydrazinocarbonyl)-4-iodo-phenyl]-3-{[(2-diethylamino-ethyl)-methyl-amino]-methyl}-benzamide] | < 3
2 | CCN(CC)CCN(C)Cc1cccc(C(=O)Nc2ccc(I)cc2C(=O)N/N=C/c2cccc(OC)c2)c1 [Compound 478, 3-{[(2-Diethylamino-ethyl)-methyl-amino]-methyl}-N-[4-iodo-2-(3-methoxy-benzylidene-hydrazinocarbonyl)-phenyl]-benzamide] | < 3
3 | CCN(CC)CCN(C)Cc1cccc(C(=O)Nc2ccc(I)cc2C(=O)N/N=C/c2ccc(OC)cc2)c1 [Compound 479, 3-{[(2-Diethylamino-ethyl)-methyl-amino]-methyl}-N-[4-iodo-2-(4-methoxy-benzylidene-hydrazinocarbonyl)-phenyl]-benzamide] | < 3
4 | CCN(CC)CCN(C)Cc1cccc(C(=O)Nc2ccc(I)cc2C(=O)N/N=C/c2cccc(O)c2)c1 [Compound 480, 3-{[(2-Diethylamino-ethyl)-methyl-amino]-methyl}-N-[2-(3-hydroxy-benzylidene-hydrazinocarbonyl)-4-iodo-phenyl]-benzamide] | < 3
5 | CCN(CC)CCN(C)Cc1cccc(C(=O)Nc2ccc(I)cc2C(=O)N/N=C/c2ccc(O)cc2)c1 [Compound 481, 3-{[(2-Diethylamino-ethyl)-methyl-amino]-methyl}-N-[2-(4-hydroxy-benzylidene-hydrazinocarbonyl)-4-iodo-phenyl]-benzamide] | 12.1
6 | O=C(Nc1ccc(I)cc1C(=O)N/N=C/c1cccc(F)c1)c1cccc(CN2CCC(N3CCCCC3)CC2)c1 [Compound 482, 3-[1,4′]Bipiperidinyl-1′-ylmethyl-N-[2-(3-fluoro-benzylidene-hydrazinocarbonyl)-4-iodo-phenyl]-benzamide] | < 3
7 | O=C(Nc1ccc(I)cc1C(=O)N/N=C/c1ccc(F)cc1)c1cccc(CN2CCC(N3CCCCC3)CC2)c1 [Compound 483, 3-[1,4′]Bipiperidinyl-1′-ylmethyl-N-[2-(4-fluoro-benzylidene-hydrazinocarbonyl)-4-iodo-phenyl]-benzamide] | < 3
8 | Cc1cccc(/C=N/NC(=O)c2cc(I)ccc2NC(=O)c2cccc(CN3CCC(N4CCCCC4)CC3)c2)c1 [Compound 484, 3-[1,4′]Bipiperidinyl-1′-ylmethyl-N-[4-iodo-2-(3-methyl-benzylidene-hydrazinocarbonyl)-phenyl]-benzamide] | < 3
9 | Cc1ccc(/C=N/NC(=O)c2cc(I)ccc2NC(=O)c2cccc(CN3CCC(N4CCCCC4)CC3)c2)cc1 [Compound 485, 3-[1,4′]Bipiperidinyl-1′-ylmethyl-N-[4-iodo-2-(4-methyl-benzylidene-hydrazinocarbonyl)-phenyl]-benzamide] | < 3
10 | Cc1ccc(/C=N/NC(=O)c2cc(I)ccc2NC(=O)c2cccc(CN3CCC(N4CCCCC4)CC3)c2)cc1C [Compound 486, 3-[1,4′]Bipiperidinyl-1′-ylmethyl-N-[2-(3,4-dimethyl-benzylidene-hydrazinocarbonyl)-4-iodo-phenyl]-benzamide] | < 3
11 | O=C(Nc1ccc(I)cc1C(=O)N/N=C/c1ccc(Cl)c(C(F)(F)F)c1)c1cccc(CN2CCC(N3CCCCC3)CC2)c1 [Compound 487, 3-[1,4′]Bipiperidinyl-1′-ylmethyl-N-[2-(4-chloro-3-trifluoromethyl-benzylidene-hydrazinocarbonyl)-4-iodo-phenyl]-benzamide] | < 3
12 | COc1cccc(/C=N/NC(=O)c2cc(I)ccc2NC(=O)c2cccc(CN3CCC(N4CCCCC4)CC3)c2)c1 [Compound 488, 3-[1,4′]Bipiperidinyl-1′-ylmethyl-N-[4-iodo-2-(3-methoxy-benzylidene-hydrazinocarbonyl)-phenyl]-benzamide] | < 3
13 | COc1ccc(/C=N/NC(=O)c2cc(I)ccc2NC(=O)c2cccc(CN3CCC(N4CCCCC4)CC3)c2)cc1 [Compound 489, 3-[1,4′]Bipiperidinyl-1′-ylmethyl-N-[4-iodo-2-(4-methoxy-benzylidene-hydrazinocarbonyl)-phenyl]-benzamide] | < 3
14 | O=C(Nc1ccc(I)cc1C(=O)N/N=C/c1cccc(O)c1)c1cccc(CN2CCC(N3CCCCC3)CC2)c1 [Compound 490, 3-[1,4′]Bipiperidinyl-1′-ylmethyl-N-[2-(3-hydroxy-benzylidene-hydrazinocarbonyl)-4-iodo-phenyl]-benzamide] | < 3
15 | O=C(Nc1ccc(I)cc1C(=O)N/N=C/c1ccc(O)cc1)c1cccc(CN2CCC(N3CCCCC3)CC2)c1 [Compound 491, 3-[1,4′]Bipiperidinyl-1′-ylmethyl-N-[2-(4-hydroxy-benzylidene-hydrazinocarbonyl)-4-iodo-phenyl]-benzamide] | < 3
16 | Cc1ccc(CNNC(=O)c2cc(Cl)ccc2NC(=O)c2cccc(CSCCO)c2)cc1C [Compound 492, N-{4-Chloro-2-[N′-(3,4-dimethyl-benzyl)-hydrazinocarbonyl]-phenyl}-3-(2-hydroxy-ethylsulfanylmethyl)-benzamide] | < 3

Row | Structure (SMILES) | IC50 [µM]
17 | Cc1ccc(C=NNC(=O)c2cc(Cl)ccc2NC(=O)c2cccc(CS(=O)(=O)CCO)c2)cc1C [Compound 493, N-[4-Chloro-2-(3,4-dimethyl-benzylidene-hydrazinocarbonyl)-phenyl]-3-(2-hydroxy-ethanesulfonylmethyl)-benzamide] | < 3
18 | Cc1ccc(/C=N/NC(=O)c2cc(Br)ccc2NC(=O)c2ccc(C)cc2)cc1 [Compound 494, N-[4-Bromo-2-(4-methyl-benzylidene-hydrazinocarbonyl)-phenyl]-4-methyl-benzamide] | 2.07
19 | O=C(Nc1ccc(Br)cc1C(=O)N/N=C/c1cccc(F)c1)c1ccccn1 [Compound 495, Pyridin-2-carboxylic acid[4-bromo-2-(3-fluoro-benzylidene-hydrazinocarbonyl)-phenyl]-amide] | 0.35
20 | O=C(Nc1ccc(Br)cc1C(=O)N/N=C/c1ccc(F)cc1)c1ccccn1 [Compound 496, Pyridin-2-carboxylic acid [4-bromo-2-(4-fluoro-benzylidene-hydrazinocarbonyl)-phenyl]-amide] | 0.64
21 | Cc1cccc(/C=N/NC(=O)c2cc(Br)ccc2NC(=O)c2ccccn2)c1 [Compound 497, Pyridin-2-carboxylic acid [4-bromo-2-(3-methyl-benzylidene-hydrazinocarbonyl)-phenyl]-amide] | 0.51
22 | Cc1ccc(/C=N/NC(=O)c2cc(Br)ccc2NC(=O)c2ccccn2)cc1 [Compound 498, Pyridin-2-carboxylic acid [4-bromo-2-(4-methyl-benzylidene-hydrazinocarbonyl)-phenyl]-amide] | 0.6
23 | Cc1ccc(/C=N/NC(=O)c2cc(Br)ccc2NC(=O)c2ccccn2)cc1C [Compound 499, Pyridin-2-carboxylic acid [4-bromo-2-(3,4-dimethyl-benzylidene-hydrazinocarbonyl)-phenyl]-amide] | 0.98
24 | O=C(Nc1ccc(Br)cc1C(=O)N/N=C/c1ccc(Cl)c(C(F)(F)F)c1)c1ccccn1 [Compound 500, Pyridin-2-carboxylic acid [4-bromo-2-(4-chloro-3-trifluoromethyl-benzylidene-hydrazinocarbonyl)-phenyl]-amide] | 0.35
25 | CCOc1ccc(C(=O)Nc2ccc(Br)cc2C(=O)N/N=C/c2cccc(F)c2)cc1 [Compound 501, N-[4-Bromo-2-(3-fluoro-benzylidene-hydrazinocarbonyl)-phenyl]-4-ethoxy-benzamide] | 23.1
26 | CCOc1ccc(C(=O)Nc2ccc(Br)cc2C(=O)N/N=C/c2ccc(F)cc2)cc1 [Compound 502, N-[4-Bromo-2-(4-fluoro-benzylidene-hydrazinocarbonyl)-phenyl]-4-ethoxy-benzamide] | 15.7
27 | CCOc1ccc(C(=O)Nc2ccc(Br)cc2C(=O)N/N=C/c2ccc(C)cc2)cc1 [Compound 503, N-[4-Bromo-2-(4-methyl-benzylidene-hydrazinocarbonyl)-phenyl]-4-ethoxy-benzamide] | 10.3
28 | CCOc1ccc(C(=O)Nc2ccc(Br)cc2C(=O)N/N=C/c2ccc(C)c(C)c2)cc1 [Compound 504, N-[4-Bromo-2-(3,4-dimethyl-benzylidene-hydrazinocarbonyl)-phenyl]-4-ethoxy-benzamide] | 18.9
29 | O=C(Nc1ccccc1C(=O)N/N=C/c1cccc(F)c1)c1ccccn1 [Compound 505, Pyridin-2-carboxylic acid [2-(3-fluoro-benzylidene-hydrazinocarbonyl)-phenyl]-amide] | 1.21
30 | O=C(Nc1ccccc1C(=O)N/N=C/c1ccc(F)cc1)c1ccccn1 [Compound 506, Pyridin-2-carboxylic acid [2-(4-fluoro-benzylidene-hydrazinocarbonyl)-phenyl]-amide] | 19.5
31 | Cc1ccc(/C=N/NC(=O)c2ccccc2NC(=O)c2ccccn2)cc1C [Compound 507, Pyridin-2-carboxylic acid [2-(3,4-dimethyl-benzylidene-hydrazinocarbonyl)-phenyl]-amide] | 1.86
